pIC50: −log10 of the molar value.
System: HCT-116
Test: Antiproliferative activity against human HCT116 cells assessed as reduction in cell viability incubated for 72 hrs by MTT assay
Format: functional, cell-based
Conditions: HCT-116, 72 h

Compound | pIC50
CC(=O)CC(=O)/C=C/c1ccc(O)c(O)c1 | 5.28
COc1cc(CCC(=O)CC(C)=O)ccc1O | 3.74
COc1cc(/C=C/C(=O)CC(C)=O)ccc1O | 5.85
CC(=O)CC(=O)/C=C/c1ccc(O)cc1 | 4.44
COc1ccc(/C=C/C(=O)CC(C)=O)cc1OC | 5.33
CC(=O)CC(=O)CCc1ccc(O)cc1 | 3.67
COc1ccc(CCC(=O)CC(C)=O)cc1OC | 3.67
COc1cc(/C=C/C(=O)CC(C)=O)cc(OC)c1OC | 4.54
COc1cc(/C=C/C(=O)CC(C)=O)cc(OC)c1O | 4.61
COc1cc(OC)c(/C=C/C(=O)CC(C)=O)c(OC)c1 | 5.07
COc1cc(OC)c(CCC(=O)CC(C)=O)c(OC)c1 | 3.86
COc1cc(CCC(=O)CC(C)=O)cc(OC)c1OC | 3.86
COc1cc(/C=C/C(=O)CC(=O)/C=C/c2ccc(O)c(OC)c2)ccc1O [CURCUMIN] | 4.98

Source: ChEMBL document CHEMBL4385650, “X-ray crystal structures, density functional theory and docking on deacetylase enzyme for antiproliferative activity of hispolon derivatives on HCT116 colon cancer” (Bioorg Med Chem, 2019)
